Assay results from PMC8604237 (Clinical and Translational Science, 2021).

Experiments:
[1] = Population PK analysis of teduglutide; type: in vivo, human
[2] = cited from earlier work
[3] = single dose, non-Japanese adults; cited from earlier work
patients with SBS [4] = test: Time- and exposure-response analysis of prescribed PS; type: in vivo, human; conditions: for percent change from baseline of prescribed PS volume (maximum) / percent change from baseline of PS volume (maximum): 0.05 mg/kg
patients with SBS [5] = conditions: cited from earlier work
[6] = single and repeated doses up to 20 mg

impact of race (Japanese vs. non-Japanese) on CL/F ([1]; covariate analysis): did not have an impact | impact of race (Japanese vs. non-Japanese) on K a ([1]; covariate analysis): did not have an impact | impact of race (Japanese vs. non-Japanese) on V/F ([1]; covariate analysis): did not have an impact | CL/F in female subjects, lower relative to male subjects ([1]; final PopPK model): 7% | V/F of typical subject of 0.38 years relative to typical subject of 34 years ([1]; final PopPK model): fourfold higher | absorption lag time ([1]; final PopPK model, corresponds to 0.299 h): 17.9 min | time of peak concentrations after dosing ([1]; observed individual concentrations, adult and pediatric patients with SBS, s.c.): 3 to 5 h | terminal elimination half-life (t 1/2), population estimate ([1]; patients with SBS, final PopPK model): 1.47 h | mean C max,ss in Japanese adult patients, higher than in non-Japanese adult patients ([1]; s.c. 0.05 mg/kg, SBS): 23% | mean C max,ss in Japanese pediatric patients, difference from non-Japanese pediatric patients ([1]; s.c. 0.05 mg/kg, SBS): ≤ 20% | time to total absorption after dosing ([1]; suggested by K a 0.330 h^−1 and lag time 17.9 min): ~10 h
Structure (SMILES): CC[C@H](C)[C@H](NC(=O)[C@H](Cc1ccccc1)NC(=O)[C@H](CC(=O)O)NC(=O)[C@H](CCCNC(=N)N)NC(=O)[C@H](C)NC(=O)[C@H](C)NC(=O)[C@H](CC(C)C)NC(=O)[C@H](CC(N)=O)NC(=O)[C@H](CC(=O)O)NC(=O)[C@H](CC(C)C)NC(=O)[C@@H](NC(=O)[C@@H](NC(=O)[C@H](CC(N)=O)NC(=O)[C@H](CCSC)NC(=O)[C@H](CCC(=O)O)NC(=O)[C@H](CC(=O)O)NC(=O)[C@H](CO)NC(=O)[C@H](Cc1ccccc1)NC(=O)[C@H](CO)NC(=O)CNC(=O)[C@H](CC(=O)O)NC(=O)CNC(=O)[C@@H](N)Cc1c[nH]cn1)[C@@H](C)O)[C@@H](C)CC)C(=O)N[C@@H](CC(N)=O)C(=O)N[C@@H](Cc1c[nH]c2ccccc12)C(=O)N[C@@H](CC(C)C)C(=O)N[C@H](C(=O)N[C@@H](CCC(N)=O)C(=O)N[C@H](C(=O)N[C@@H](CCCCN)C(=O)N[C@H](C(=O)N[C@H](C(=O)N[C@@H](CC(=O)O)C(=O)O)[C@@H](C)O)[C@@H](C)CC)[C@@H](C)O)[C@@H](C)CC [teduglutide]
terminal elimination half-life [2]: ~ 2 h | time of maximum plasma levels after dosing ([2]; s.c. injection): 3 to 5 h | accumulation [2, 6]: no accumulation | rate and extent of absorption vs dose [2, 6]: dose‐proportional | AUCinf in individuals with ESRD vs healthy volunteers [3]: more than twofold higher | C max in individuals with ESRD vs healthy volunteers [3]: more than twofold higher | percent change from baseline of prescribed PS volume (maximum) (patients with SBS [4]; Japanese pediatric patients with SBS): −29.7% | percent change from baseline of PS volume (maximum) (patients with SBS [4]; adult Japanese patients with SBS): −62.6% | percent change from baseline of PS volume (maximum) (patients with SBS [4]; adult non-Japanese patients with SBS): −54.9% | percent change from baseline of prescribed PS volume (maximum) (patients with SBS [4]; non-Japanese pediatric patients with SBS): −74.7% | maximum reduction in PS (patients with SBS [4]; daily dosing of 0.05 mg/kg): 5.76 L/week | E max of teduglutide on prescribed PS volume (patients with SBS [4]; final time- and exposure-response model, change from baseline in prescribed PS volume): −5.76 L/week | incidence of adverse events leading to discontinuation of treatment (patients with SBS [5]; 0.05 mg/kg, adult patients with SBS, 24-week study): less than 5% | responder rate (≥20% reduction from baseline in the volume of PS) (patients with SBS [5]; daily s.c. 0.05 mg/kg, patients with SBS, vs. 30% placebo, p = 0.002): 63%
